From ChEMBL document CHEMBL4507291 (2021)

Assays:
[1] = target: Tyrosine-protein kinase HCK (Homo sapiens) (UniProt P08631)
[2] = target: Serine/threonine-protein kinase Nek4 (Homo sapiens) (UniProt P51957)
[3] = tested on: Phosphatidylinositol 4,5-bisphosphate 3-kinase catalytic subunit alpha isoform (Homo sapiens), P42336 [E545K]
[4] = target: Fibroblast growth factor receptor 1 (Homo sapiens) (UniProt P11362)
[5] = target: Beta-3 adrenergic receptor (Homo sapiens) (UniProt P13945); details: Compound concentration 10.0 uM
Beta-3 adrenergic receptor (Homo sapiens), sequence (P13945 whole entry, looked up): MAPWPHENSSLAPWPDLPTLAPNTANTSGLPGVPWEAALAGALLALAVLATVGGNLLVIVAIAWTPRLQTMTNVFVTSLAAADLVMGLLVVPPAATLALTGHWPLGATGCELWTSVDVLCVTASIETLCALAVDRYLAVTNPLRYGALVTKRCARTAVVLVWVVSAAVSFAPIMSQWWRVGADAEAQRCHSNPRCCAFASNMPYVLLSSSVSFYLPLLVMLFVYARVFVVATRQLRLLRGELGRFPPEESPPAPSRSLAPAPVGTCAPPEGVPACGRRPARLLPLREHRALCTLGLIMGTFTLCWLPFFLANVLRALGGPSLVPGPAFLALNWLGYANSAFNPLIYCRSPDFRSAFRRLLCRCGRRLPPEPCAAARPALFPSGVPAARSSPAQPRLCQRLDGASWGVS

[6] = target: Serine/threonine-protein kinase PAK 5 (Homo sapiens) (UniProt Q9P286)
[7] = target: T1, G protein-coupled receptor kinase 3 (Homo sapiens) (UniProt P35626)
T1 sequence (whole entry): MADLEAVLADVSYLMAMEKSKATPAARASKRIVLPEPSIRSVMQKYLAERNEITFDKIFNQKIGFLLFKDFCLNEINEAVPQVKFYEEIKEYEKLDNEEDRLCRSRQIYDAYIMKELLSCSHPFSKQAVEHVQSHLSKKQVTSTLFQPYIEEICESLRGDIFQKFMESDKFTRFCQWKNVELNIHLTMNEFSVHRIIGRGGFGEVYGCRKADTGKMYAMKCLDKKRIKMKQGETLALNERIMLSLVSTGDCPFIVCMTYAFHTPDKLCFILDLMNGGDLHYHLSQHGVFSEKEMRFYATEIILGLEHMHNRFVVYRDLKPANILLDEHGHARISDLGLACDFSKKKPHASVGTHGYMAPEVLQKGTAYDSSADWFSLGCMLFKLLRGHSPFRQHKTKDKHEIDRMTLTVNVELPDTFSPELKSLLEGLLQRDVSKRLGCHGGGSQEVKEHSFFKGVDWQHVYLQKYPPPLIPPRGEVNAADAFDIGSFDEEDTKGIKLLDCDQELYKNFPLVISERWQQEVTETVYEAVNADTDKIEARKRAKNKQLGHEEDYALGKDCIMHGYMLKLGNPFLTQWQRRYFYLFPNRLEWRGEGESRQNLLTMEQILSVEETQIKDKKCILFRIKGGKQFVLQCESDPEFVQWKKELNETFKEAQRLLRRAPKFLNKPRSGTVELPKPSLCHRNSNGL

[8] = target: T2, Ephrin type-B receptor 2 (Homo sapiens) (UniProt P29323)
T2 sequence (whole entry): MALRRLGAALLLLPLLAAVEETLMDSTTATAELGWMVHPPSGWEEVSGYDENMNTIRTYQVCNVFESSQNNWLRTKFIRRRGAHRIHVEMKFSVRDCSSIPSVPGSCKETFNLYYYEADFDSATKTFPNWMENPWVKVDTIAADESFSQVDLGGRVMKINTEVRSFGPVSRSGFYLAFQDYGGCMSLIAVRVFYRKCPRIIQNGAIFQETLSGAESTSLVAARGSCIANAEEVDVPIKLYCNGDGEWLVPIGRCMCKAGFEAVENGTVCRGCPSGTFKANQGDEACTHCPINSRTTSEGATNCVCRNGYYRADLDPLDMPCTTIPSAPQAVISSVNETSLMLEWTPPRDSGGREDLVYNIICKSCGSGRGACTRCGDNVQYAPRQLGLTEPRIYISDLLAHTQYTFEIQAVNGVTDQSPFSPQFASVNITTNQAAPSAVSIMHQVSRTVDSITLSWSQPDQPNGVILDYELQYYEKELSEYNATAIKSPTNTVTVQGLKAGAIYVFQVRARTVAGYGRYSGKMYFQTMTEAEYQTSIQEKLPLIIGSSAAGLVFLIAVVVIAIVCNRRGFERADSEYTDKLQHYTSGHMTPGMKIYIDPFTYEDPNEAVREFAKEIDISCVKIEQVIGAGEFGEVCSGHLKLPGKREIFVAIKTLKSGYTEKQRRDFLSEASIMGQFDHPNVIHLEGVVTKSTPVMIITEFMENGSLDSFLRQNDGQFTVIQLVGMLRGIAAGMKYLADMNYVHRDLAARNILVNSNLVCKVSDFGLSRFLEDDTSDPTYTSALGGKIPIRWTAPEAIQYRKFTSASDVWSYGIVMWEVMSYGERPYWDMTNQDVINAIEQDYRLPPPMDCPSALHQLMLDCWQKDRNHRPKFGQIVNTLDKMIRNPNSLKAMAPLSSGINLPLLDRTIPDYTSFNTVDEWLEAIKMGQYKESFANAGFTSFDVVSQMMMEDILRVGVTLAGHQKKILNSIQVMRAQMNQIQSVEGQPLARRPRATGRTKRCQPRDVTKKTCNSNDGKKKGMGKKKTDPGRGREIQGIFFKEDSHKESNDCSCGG

[9] = target: Activin receptor type-1-like (Homo sapiens) (UniProt P37023)
Activin receptor type-1-like (Homo sapiens), sequence (P37023 whole entry, canonical isoform): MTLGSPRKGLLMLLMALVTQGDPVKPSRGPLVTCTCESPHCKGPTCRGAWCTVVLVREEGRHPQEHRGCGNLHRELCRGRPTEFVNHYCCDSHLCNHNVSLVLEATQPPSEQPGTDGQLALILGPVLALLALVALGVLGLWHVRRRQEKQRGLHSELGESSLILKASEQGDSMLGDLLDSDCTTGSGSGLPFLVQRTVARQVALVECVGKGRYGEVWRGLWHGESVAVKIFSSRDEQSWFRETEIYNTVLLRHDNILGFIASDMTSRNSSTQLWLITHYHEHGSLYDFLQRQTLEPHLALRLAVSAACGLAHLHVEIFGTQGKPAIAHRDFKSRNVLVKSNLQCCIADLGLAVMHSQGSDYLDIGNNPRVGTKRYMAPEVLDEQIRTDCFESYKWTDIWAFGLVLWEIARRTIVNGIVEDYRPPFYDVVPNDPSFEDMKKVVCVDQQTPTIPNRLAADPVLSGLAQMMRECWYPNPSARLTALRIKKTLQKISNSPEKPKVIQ

[10] = tested on: Phosphatidylinositol 4,5-bisphosphate 3-kinase catalytic subunit alpha isoform (Homo sapiens), P42336 [H1047Y]
Phosphatidylinositol 4,5-bisphosphate 3-kinase catalytic subunit alpha isoform (Homo sapiens), P42336 [H1047Y], sequence (P42336 whole entry H1047Y, canonical isoform): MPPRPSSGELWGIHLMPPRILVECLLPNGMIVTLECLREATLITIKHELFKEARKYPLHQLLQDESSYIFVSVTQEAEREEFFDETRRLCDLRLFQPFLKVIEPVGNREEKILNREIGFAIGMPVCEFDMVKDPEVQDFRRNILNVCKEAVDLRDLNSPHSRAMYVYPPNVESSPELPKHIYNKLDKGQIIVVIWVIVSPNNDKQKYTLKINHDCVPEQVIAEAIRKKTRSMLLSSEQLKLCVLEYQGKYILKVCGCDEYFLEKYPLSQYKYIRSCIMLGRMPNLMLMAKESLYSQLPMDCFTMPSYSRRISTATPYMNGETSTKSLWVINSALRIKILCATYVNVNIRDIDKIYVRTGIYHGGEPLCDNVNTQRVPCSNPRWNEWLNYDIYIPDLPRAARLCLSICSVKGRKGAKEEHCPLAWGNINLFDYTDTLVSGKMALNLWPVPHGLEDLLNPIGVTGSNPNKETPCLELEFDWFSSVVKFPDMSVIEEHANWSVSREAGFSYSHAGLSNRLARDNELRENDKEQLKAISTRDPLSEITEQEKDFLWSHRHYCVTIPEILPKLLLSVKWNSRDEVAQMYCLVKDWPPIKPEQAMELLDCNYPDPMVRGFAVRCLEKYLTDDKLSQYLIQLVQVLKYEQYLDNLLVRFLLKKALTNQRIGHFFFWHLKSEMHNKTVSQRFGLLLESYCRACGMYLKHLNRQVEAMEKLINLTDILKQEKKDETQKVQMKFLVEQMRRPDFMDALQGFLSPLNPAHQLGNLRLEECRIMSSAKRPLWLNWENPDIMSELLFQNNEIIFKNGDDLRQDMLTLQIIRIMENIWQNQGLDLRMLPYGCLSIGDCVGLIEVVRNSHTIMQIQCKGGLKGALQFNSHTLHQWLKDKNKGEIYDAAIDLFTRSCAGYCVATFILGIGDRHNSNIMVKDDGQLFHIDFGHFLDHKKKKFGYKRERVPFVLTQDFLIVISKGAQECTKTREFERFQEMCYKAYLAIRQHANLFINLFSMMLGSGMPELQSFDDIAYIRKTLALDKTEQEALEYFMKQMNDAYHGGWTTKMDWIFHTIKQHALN

[11] = target: T3, cAMP-dependent protein kinase catalytic subunit PRKX (Homo sapiens) (UniProt P51817)
T3 sequence (whole entry): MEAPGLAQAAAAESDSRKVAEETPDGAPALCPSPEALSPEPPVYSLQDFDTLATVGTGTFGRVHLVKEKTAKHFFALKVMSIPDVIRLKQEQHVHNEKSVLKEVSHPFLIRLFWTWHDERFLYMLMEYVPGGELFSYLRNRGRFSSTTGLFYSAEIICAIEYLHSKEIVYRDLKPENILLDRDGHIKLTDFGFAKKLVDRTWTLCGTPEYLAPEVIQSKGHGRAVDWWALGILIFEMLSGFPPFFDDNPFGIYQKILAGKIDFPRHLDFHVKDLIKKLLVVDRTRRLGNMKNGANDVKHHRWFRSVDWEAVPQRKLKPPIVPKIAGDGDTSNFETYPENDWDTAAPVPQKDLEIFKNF

[12] = target: Mast/stem cell growth factor receptor Kit (Homo sapiens) (UniProt P10721)
[13] = target: Dual specificity testis-specific protein kinase 1 (Homo sapiens) (UniProt Q15569)
[14] = target: Cyclin-dependent kinase 2 (Homo sapiens) (UniProt P24941)
[15] = target: Serine/threonine-protein kinase ULK2 (Homo sapiens) (UniProt Q8IYT8)
Serine/threonine-protein kinase ULK2 (Homo sapiens), sequence (Q8IYT8 whole entry): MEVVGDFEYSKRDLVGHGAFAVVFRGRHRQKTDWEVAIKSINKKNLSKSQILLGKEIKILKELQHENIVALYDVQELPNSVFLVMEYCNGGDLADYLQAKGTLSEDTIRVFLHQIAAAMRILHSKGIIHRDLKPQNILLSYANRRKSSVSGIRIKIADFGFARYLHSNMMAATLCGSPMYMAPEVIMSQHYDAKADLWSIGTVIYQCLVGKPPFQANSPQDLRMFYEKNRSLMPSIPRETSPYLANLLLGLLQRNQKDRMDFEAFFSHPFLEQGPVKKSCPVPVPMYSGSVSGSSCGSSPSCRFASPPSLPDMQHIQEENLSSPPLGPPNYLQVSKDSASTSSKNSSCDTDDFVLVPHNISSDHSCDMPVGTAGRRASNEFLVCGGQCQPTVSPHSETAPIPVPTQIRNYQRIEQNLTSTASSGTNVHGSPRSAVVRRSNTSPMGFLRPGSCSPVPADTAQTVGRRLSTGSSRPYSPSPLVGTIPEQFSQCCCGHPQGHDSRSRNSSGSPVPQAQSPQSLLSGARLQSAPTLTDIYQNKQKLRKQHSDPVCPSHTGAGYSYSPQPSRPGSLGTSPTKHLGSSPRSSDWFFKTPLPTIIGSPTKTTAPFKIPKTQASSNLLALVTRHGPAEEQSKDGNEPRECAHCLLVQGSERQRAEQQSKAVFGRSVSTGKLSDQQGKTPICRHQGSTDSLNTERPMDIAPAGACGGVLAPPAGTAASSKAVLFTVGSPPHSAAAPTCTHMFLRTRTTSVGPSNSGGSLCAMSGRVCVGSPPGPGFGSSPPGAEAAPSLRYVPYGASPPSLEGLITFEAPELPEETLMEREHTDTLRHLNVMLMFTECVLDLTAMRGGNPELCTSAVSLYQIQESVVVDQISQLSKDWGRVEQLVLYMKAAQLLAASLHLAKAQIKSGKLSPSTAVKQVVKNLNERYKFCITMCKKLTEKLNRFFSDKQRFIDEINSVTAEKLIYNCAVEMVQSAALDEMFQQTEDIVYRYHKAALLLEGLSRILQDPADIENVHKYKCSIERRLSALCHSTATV

[16] = target: Mitogen-activated protein kinase 9 (Homo sapiens) (UniProt P45984)
Mitogen-activated protein kinase 9 (Homo sapiens), sequence (P45984 whole entry, looked up): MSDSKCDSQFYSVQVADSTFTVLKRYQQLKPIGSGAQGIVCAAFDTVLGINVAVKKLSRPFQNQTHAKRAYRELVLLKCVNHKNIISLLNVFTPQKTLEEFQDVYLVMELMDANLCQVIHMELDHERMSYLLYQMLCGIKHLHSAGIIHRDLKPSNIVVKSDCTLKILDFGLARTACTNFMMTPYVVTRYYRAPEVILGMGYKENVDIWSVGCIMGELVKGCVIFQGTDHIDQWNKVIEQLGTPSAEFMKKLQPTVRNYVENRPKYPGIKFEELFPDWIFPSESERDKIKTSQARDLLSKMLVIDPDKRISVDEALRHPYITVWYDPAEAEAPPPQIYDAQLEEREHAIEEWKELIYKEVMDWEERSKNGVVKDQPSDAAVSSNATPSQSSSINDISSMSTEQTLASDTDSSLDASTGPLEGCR

[17] = Compound concentration 100.0 nM
[18] = Compound concentration 1000.0 nM

Phosphatidylinositol 4,5-bisphosphate 3-kinase catalytic subunit alpha isoform (Homo sapiens), P42336 [E545K], sequence (P42336 whole entry E545K, canonical isoform): as the sequence (P42336 whole entry H1047Y, canonical isoform) above, with E545K, Y1047H counted along it
Tyrosine-protein kinase HCK (Homo sapiens), sequence (P08631 2-526 limits assumed): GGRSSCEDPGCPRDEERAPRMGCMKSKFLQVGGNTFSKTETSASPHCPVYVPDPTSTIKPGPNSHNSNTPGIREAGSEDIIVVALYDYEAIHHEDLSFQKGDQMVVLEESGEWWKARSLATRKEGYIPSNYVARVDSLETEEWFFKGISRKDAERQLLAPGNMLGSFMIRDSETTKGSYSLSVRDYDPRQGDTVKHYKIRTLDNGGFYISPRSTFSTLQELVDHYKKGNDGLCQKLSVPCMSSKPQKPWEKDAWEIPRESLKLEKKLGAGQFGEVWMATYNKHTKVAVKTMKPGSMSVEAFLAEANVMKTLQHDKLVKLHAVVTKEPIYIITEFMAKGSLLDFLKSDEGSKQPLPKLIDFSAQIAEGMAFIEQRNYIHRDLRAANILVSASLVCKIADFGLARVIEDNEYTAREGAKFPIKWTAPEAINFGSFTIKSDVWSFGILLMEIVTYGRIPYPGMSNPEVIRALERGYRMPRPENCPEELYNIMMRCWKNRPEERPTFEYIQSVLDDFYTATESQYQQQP
Serine/threonine-protein kinase Nek4 (Homo sapiens), sequence (P51957 whole entry, looked up, canonical isoform): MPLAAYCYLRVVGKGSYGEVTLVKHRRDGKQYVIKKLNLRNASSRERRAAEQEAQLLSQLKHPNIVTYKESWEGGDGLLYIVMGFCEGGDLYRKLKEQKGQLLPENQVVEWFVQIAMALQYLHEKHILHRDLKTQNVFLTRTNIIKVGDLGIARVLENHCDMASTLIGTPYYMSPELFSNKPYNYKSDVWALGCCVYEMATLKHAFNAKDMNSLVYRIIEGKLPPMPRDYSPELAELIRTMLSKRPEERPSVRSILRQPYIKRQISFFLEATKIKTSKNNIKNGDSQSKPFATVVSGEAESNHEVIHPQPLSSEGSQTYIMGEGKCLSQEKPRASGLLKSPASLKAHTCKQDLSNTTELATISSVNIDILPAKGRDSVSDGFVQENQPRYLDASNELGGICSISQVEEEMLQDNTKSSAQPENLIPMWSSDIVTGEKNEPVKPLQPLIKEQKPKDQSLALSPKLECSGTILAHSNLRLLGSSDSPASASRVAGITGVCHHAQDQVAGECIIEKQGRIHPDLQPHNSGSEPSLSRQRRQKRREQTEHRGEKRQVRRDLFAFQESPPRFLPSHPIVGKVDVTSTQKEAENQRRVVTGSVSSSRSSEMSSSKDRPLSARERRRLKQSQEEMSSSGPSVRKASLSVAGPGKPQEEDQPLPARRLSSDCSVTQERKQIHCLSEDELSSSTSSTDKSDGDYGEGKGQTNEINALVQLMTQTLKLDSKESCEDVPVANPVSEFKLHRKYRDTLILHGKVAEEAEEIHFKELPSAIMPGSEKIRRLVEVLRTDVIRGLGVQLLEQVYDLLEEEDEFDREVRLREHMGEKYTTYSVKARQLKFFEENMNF

C[C@@H]1CN(c2cc(-c3n[nH]c4ccc(OC5(C)CC5)cc34)ncn2)C[C@H](C)O1 [MLi-2]
inactive: residual activity [1, 17] 84% | residual activity [2, 17] 84% | residual activity [3, 17] 65% | residual activity [4, 17] 100% | inhibition [5] -5.99% | residual activity [6, 17] 86% | residual activity [7, 17] 91% | residual activity [8, 17] 90% | residual activity [9, 17] 94% | residual activity [10, 17] 76% | residual activity [11, 17] 86% | residual activity [12, 17] 82% | residual activity [13, 17] 75% | residual activity [14, 17] 96% | residual activity [15, 17] 69% | residual activity [16, 17] 72%

C[C@@H]1CN(c2cc(-c3nn(C)c4ccc(OC5(C)CC5)cc34)ncn2)C[C@H](C)O1 [MLi-2-NC]
inactive: residual activity [1, 18] 96% | residual activity [2, 18] 60% | residual activity [3, 18] 79% | residual activity [4, 18] 100% | inhibition [5] 11.8% | residual activity [6, 18] 84% | residual activity [7, 18] 69% | residual activity [8, 18] 95% | residual activity [9, 18] 63% | residual activity [10, 18] 100% | residual activity [11, 18] 92% | residual activity [12, 18] 100% | residual activity [13, 18] 100% | residual activity [14, 18] 73% | residual activity [15, 18] 59% | residual activity [16, 18] 78%
